Experiment in all cases: Cell growth inhibition, SRB assay
Common to all, as to type: cell-based, human
(The SRB assay estimates cell density from bound dye.)

One assay concerns Caov-3. The conditions noted are these: Ovarian Caov-3, 3% FBS. The protocol: (§1) Compounds were dissolved in DMSO and further diluted in cell culture medium for the experiments performed. Cells were seeded into 96-well plates with 1,500-5,000 cells/well according to cell growth rate. After 24 h, DMEM medium containing 10% FBS were changed to DMEM containing 3% FBS for cancer cells and additional 3% FBS were added into the culture medium for normal cells. The compound was added into the cell culture at the indicated concentrations, and the final concentration of DMSO was adjusted to a final concentration of 0.1%. Cells were subjected to either normoxic condition (20% O2) for 6 days or hypoxic condition (0.2% O2) for 2 days and then transferred to normoxic condition for 4 days. Cell viability was assessed by Sulforhodamine B (SRB) assay at Day 6.
(§2) Sulforhodamine B (SRB) (Sigma, Oakville, ON, Canada) is a water-soluble dye that binds to the basic amino acids of the cellular proteins. Thus, colorimetric measurement of the bound dye provides an estimate of the total protein mass that is related to the cell number. The cells were fixed in situ by gently aspirating off the culture media and adding 50 ul of cold 10% trichloroacetic Acid (TCA) per well and incubated at 4° C. for 30-60 min. The plates were washed five times with water and allowed to air dry for 5 min. 50 ul of 0.4% (w/v) SRB dissolved in 1% (v/v) acetic acid were added into each well, plates were then incubated at RT for 30 min for staining, washed four times with 1% acetic acid to remove any unbound dye and then allowed to air dry for 5 min. Stain was solubilized with 100 ul of 10 mM Tris pH 10.5 per well. Absorbance was read at 570 nm on a spectrophotometer. GI50 (compound concentration required for 50% of growth inhibition) was calculated using GraphPad Prism 4.0 software (GraphPad Software, Inc., San Diego, Calif., USA).
(§3) Cell viability of various cell lines treated with 3-carboxy-N,N,N-trimethyl-2-pentadecanamidopropan-1-aminium (“nPAC”) and compound of Examples S7, S63, S66, S90, S89, S67, S75 and S10 was also assessed in a manner as described above in Example 5.

The test system of a further assay is MDA-231. The conditions noted are these: Breast MDA-231, 3% FBS. The protocol: as §1, §2, §3
The next assay relates to COLO-205. The conditions noted are these: Colon COLO-205, 3% FBS. The protocol:
as §1, §2, §3

Another assay deals with HCT-15. The conditions noted are these: Colon HCT-15, 3% FBS. The protocol: as §1, §2, §3
The test system of the next assay is SW620. The conditions noted are these: Colon SW620, 3% FBS. The method, then:
as §1, §2, §3

In a further assay the test system is Hs578T. The conditions noted are these: Breast Hs578T, 3% FBS. The protocol:
as §1, §2, §3

The test system of the next assay is SW480. The conditions noted are these: Colon SW480, 3% FBS. The method, then: as §1, §2, §3
The next assay has as its system A54. The conditions noted are these: Lung A54, 3% FBS. The protocol: as §1, §2, §3
For another assay, the system named is MCF-7. The conditions noted are these: Breast MCF-7, 3% FBS; read-out: GI50. The method, then: (§4) Human cancer cells (MCF-7, H358, H460, HCT116 p53^+/+, HCT116 p53^−/−, A172, PC-3, DU-145 and SW626) were maintained in DMEM medium containing 10% Fetal Bovine Serum (FBS) (Invitrogen, Burlington, ON, Canada) and normal cells HMEC, 184A1, NHBE and PrEC were cultured in MEGM, MEGM plus transferring and cholera toxin, BEGM and PrEGM supplemented with various growth factors (Cambrex, Charles city, IA, USA), respectively.
as §1, §2, §3

A further assay has as its system H358. The conditions noted are these: Lung H358, 3% FBS; read-out: GI50. The method, then: as §4, §1, §2, §3
Another assay concerns A172. The conditions noted are these: Brain A172, 3% FBS; read-out: GI50. The method, then:
as §4, §1, §2, §3

For a further assay, the system named is PC-3. The conditions noted are these: Prostate PC-3, 3% FBS; read-out: GI50. The method, then: as §4, §1, §2, §3
In the next assay the test system is SW626. The conditions noted are these: Ovarian SW626, 3% FBS; read-out: GI50. The protocol: as §4, §1, §2, §3

As for “3-carboxy-N,N,N-trimethyl-2-pentadecanamidopropan-1-aminium [nPAC, reference compound]”, the GI50 (commonly the concentration at which growth is held to half of that of the control) in the assay on Caov-3 was 1300 nM; in the assay on MDA-231, 10000 nM; with COLO-205, 400 nM; with HCT-15, 1500 nM; with SW620, 500 nM; in the assay on Hs578T, 19000 nM. Besides, the GI50 with SW480 is 400 nM; in the assay with A54, 20000 nM; in the assay on MCF-7 it was 6600 nM; in the assay on H358, 700 nM; in the assay on A172 it was 3200 nM; with PC-3, 2500 nM. Besides, the GI50 in the assay on SW626 turned out to be 1200 nM.

Source of the values: US8410150B2, “Inhibitors of carnitine palmitoyltransferase and treating cancer” (University Health Network, priority 2007, dated 2013).
